{"source": "patent US20220213052A1", "about": "“INHIBITORS OF RNA-BINDING PROTEINS, COMPOSITIONS THEREOF, AND THERAPEUTIC USES THEROF” (The University of North Carolina at Chapel Hill, priority 2019, published 2022)", "key": {"[1]": {"test_system": "triple-negative breast cancer cell line MDA-MB-231", "assay": "Cytotoxicity assay (WST-8), MDA-MB-231", "format": "cell-based", "conditions": "Homo sapiens, 96 h incubation", "outline": "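Cells (3,000-5,000/well) were treated in triplicate with titrated compounds for 96 h, then WST-8 was added for 1-3 h at 37° C and absorbance read at 450 nm (650 nm correction). IC50 (50% growth inhibition vs vehicle) came from sigmoid curve fitting.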"}, "Musashi 2 (Msi2)": {"target": "Musashi 2 (Msi2) (Homo sapiens, UniProt Q96DH6)", "sequence (Q96DH6 whole entry, species assumed)": "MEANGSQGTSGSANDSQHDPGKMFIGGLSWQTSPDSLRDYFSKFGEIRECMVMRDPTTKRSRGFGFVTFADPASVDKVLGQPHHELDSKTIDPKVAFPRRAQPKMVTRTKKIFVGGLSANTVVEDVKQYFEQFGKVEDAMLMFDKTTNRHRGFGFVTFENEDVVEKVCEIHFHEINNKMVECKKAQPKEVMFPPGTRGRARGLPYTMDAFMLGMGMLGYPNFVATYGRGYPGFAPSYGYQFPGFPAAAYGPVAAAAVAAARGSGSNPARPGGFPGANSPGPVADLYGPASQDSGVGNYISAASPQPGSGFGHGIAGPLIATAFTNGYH", "assay": "Msi2 FP assay", "format": "binding", "conditions": "cell marked (RRM1), read-out: Msi2 (Ki) (RRM1)"}, "[2]": {"target": "T1, RNA-binding protein Lin-28 homolog B (LIN28B) (Homo sapiens, UniProt Q6ZN17)", "T1 sequence (Q6ZN17 1-250)": "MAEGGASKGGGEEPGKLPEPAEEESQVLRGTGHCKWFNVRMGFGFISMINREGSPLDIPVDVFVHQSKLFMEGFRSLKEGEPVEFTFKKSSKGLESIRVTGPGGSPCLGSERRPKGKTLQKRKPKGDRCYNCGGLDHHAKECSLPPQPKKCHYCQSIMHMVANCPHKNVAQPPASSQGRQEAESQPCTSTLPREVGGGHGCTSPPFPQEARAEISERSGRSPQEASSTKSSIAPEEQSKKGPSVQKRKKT", "assay": "LIN28B FP assay"}, "[3]": {"test_system": "2LMP subclone generated from MDA-MB-231", "assay": "2LMP mouse xenograft model", "format": "in vivo", "source_text": "Xenograft and orthotopic models of cancer cell lines with HuR overexpression will be used to test the in vivo therapeutic potential of compounds of the present technology. A person of ordinary skill in the art is well apprised of cancer cell lines with HuR overexpression, as exemplified by references 2-12 cited herein in the “References” section. Tumor models will be established as described in Xu, L., et al., (−)−Gossypol enhances response to radiation therapy and results in tumor regression of human prostate cancer. Mol Cancer Ther, 2005. 4(2): p. 197-205.35 Briefly, 4-6 week old athymic NCr-nu/nu mice or 8-10-week-old NOD/SCID mice will be inoculated subcutaneously on both sides of flanks with 0.1 ml of a cell suspension of 1-5×10^6 tumor cells. Tumors will be allowed to grow to approximately 100 mm^3, when the blood vessel supplies to the tumor are established. Each group will contain at least 5 animals with at least 10 tumors across the five animals. Animals will be given compounds or vehicle i.v., i.p. or q.o.d.×2-3 weeks as described in Xu, L., et al., Systemic p53 gene therapy of cancer with immunolipoplexes targeted by anti-transferrin receptor scFv. Mol Med, 2001. 7(10): p. 723-34 and Xu, L., et al., Self-assembly of a virus-mimicking nanostructure system for efficient tumor-targeted gene delivery. […] The tumor sizes and animal body weights will be measured twice a week. […]"}, "[4]": {"test_system": "MDA-MB-231 mouse xenograft", "assay": "MDA-MB-231 mouse xenograft model, KH-39 alone and with docetaxel", "format": "in vivo, mice", "conditions": "after three-week treatment; KH-39 i.p. 50 mg/kg 5 times per week; TXT i.v.; ***P<0.001, ****P<0.0001, n=12", "source_text": "Cytotoxicity assays (as described earlier in this disclosure) for various cancer cell lines will also be performed utilizing concentrations of a compound of the present technology that are below the lethal threshold for the compound for the particular cancer (a “sub-lethal concentration”) in combination with a chemotherapeutic compound (e.g., docetaxel or doxorubicin) to illustrate compounds of the present technology sensitize cancer cell lines to chemotherapy. By way of illustration in an in vivo model, in vivo antitumor efficacy of KH-39 was examined in combination with docetaxel (a first-line chemotherapy for human breast cancer) in a MDA-MB-231 mouse xenograft model. For this, tumor-bearing female athymic mice were provided according to the protocols described earlier in the present disclosure and were randomized into four groups. One group of mice was treated with KH-39 (i.p. 50 mg/kg, 5 times per week), one group with docetaxel (TXT; i.v. at the dosages and time intervals indicated in FIG. 12), one group with a combination of KH-39 and TXT (KH-39 i.p. 50 mg/kg, 5 times per week and TXT i.v. at the dosages and time intervals indicated in FIG. 12), and one group of mice as the vehicle control. FIG. 12 illustrates the results, providing the tumor growth curves for each group."}}}
{"smiles": "CC(C)(C)c1ccc(C(=O)Nc2ccc3[nH]c(C(=O)NO)cc3c2)cc1", "note": "[KH-39, 5-(4-(tert-butyl)benzamido)-N-hydroxy-1H-indole-2-carboxamide]", "values": [{"measurement": "IC50", "setting": "[1]", "result": 4.74, "unit": "µM"}, {"measurement": "Ki", "setting": "Musashi 2 (Msi2)", "result": 3.15, "unit": "µM"}, {"measurement": "Ki", "setting": "[2]", "result": "> 20", "unit": "µM"}, {"measurement": "bodyweight gain of mice", "setting": "[3]; 2LMP xenograft model", "result": "gain bodyweight with similar trend to those in vehicle control group"}, {"measurement": "tumor growth compared to the vehicle control", "setting": "[3]; after three-week treatment, ****P<0.0001, n=10", "result": "significantly decreased tumor growth"}, {"measurement": "relative tumor sizes versus control group", "setting": "[4]", "result": "significantly smaller than those in control group"}]}
